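Cells were grown in 96-well plates and exposed to each compound for 48 hours at five concentrations; endpoints were interpolated linearly between bracketing concentrations, or set to the highest concentration if not reached. At the GI50, growth is halved.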 Calls of active or inactive are those of the source. No stated cut-off is given here; in the data, active = GI50 up to about 1.1 µM and inactive = higher.
Experiments:
Test in all cases: inhibition of tumour cell growth, NCI panel, 48 h
OVCAR-5 = tested on: OVCAR-5
SNB-75 = tested on: SNB-75
UACC-257 = tested on: UACC-257
SF-295 = tested on: SF-295
CCRF-CEM = tested on: CCRF-CEM
TK-10 = tested on: TK-10
SF-268 = tested on: SF-268
RXF 393 = tested on: RXF 393
UO-31 = tested on: UO-31
HOP-92 = tested on: HOP-92
KM12 = tested on: KM12
SK-MEL-5 = tested on: SK-MEL-5
SW-620 = tested on: SW-620
SK-MEL-2 = tested on: SK-MEL-2
SF-539 = tested on: SF-539
A498 = tested on: A498

Measured: GI50

CC(C)NCC(O)COC(=O)c1cccs1 (centres undefined)
inactive: OVCAR-5 > 100 µM | SNB-75 67.8 µM | UACC-257 > 100 µM | SF-295 > 10 µM | CCRF-CEM > 100 µM | TK-10 > 100 µM | SF-268 > 100 µM | RXF 393 > 100 µM | UO-31 > 100 µM | HOP-92 > 100 µM | KM12 > 100 µM | SK-MEL-5 > 100 µM | SW-620 > 100 µM | SK-MEL-2 > 100 µM

CN(C)CCNC(=O)Cc1ccccc1Nc1c(Cl)cccc1Cl
inactive: OVCAR-5 11.7 µM | SNB-75 12.7 µM | UACC-257 12.8 µM | SF-295 16 µM | CCRF-CEM 14.3 µM | TK-10 13.7 µM | SF-268 18.2 µM | RXF 393 15.3 µM | UO-31 12.6 µM | KM12 18.5 µM | SK-MEL-5 15 µM | SW-620 18.2 µM | SF-539 16.5 µM

O=C(CCn1[nH]c(=O)c(Cl)c(Cl)c1=O)NNC(=O)C[n+]1ccccc1
inactive: OVCAR-5 > 100 µM | SNB-75 52.4 µM | UACC-257 > 10 µM | SF-295 > 100 µM | A498 > 100 µM | CCRF-CEM > 100 µM | TK-10 > 100 µM | SF-268 > 100 µM | RXF 393 > 100 µM | UO-31 > 100 µM | KM12 > 100 µM | SK-MEL-5 > 100 µM | SW-620 > 100 µM | SF-539 > 100 µM | SK-MEL-2 > 100 µM

c1ccc(Nc2nnc(CSc3nc(-c4ccccc4)c(-c4ccccc4)[nH]3)s2)cc1
inactive: OVCAR-5 21.3 µM | SNB-75 44.4 µM | UACC-257 20.5 µM | SF-295 18.6 µM | A498 26.5 µM | CCRF-CEM 15.5 µM | TK-10 26.1 µM | SF-268 24.4 µM | UO-31 13.3 µM | HOP-92 11.1 µM | KM12 21.1 µM | SK-MEL-5 15.2 µM | SF-539 26.4 µM | SK-MEL-2 19 µM

C[C@@H]1C(=O)CC2C(C)(C)CCC[C@]2(C)[C@@]12CC[C@]1(C=COC1)O2 (some centres undefined)
inactive: OVCAR-5 > 100 µM | SF-295 36.6 µM | CCRF-CEM 23.4 µM | SF-268 64.7 µM | RXF 393 16 µM | UO-31 29.9 µM | HOP-92 13.8 µM | KM12 39.4 µM | SW-620 50.8 µM | SF-539 39.5 µM | SK-MEL-2 22.7 µM

Cn1nc(-c2ccccc2)c(C(=O)/C=C/c2ccc(F)cc2)c(N2CCCCC2)c1=O
inactive: CCRF-CEM 2.61 µM | TK-10 17.8 µM | SF-268 6.35 µM | RXF 393 2.53 µM | UO-31 5.58 µM | HOP-92 3.85 µM | SK-MEL-5 5.73 µM | SW-620 5.06 µM | SF-539 4.54 µM

Cc1cc(=O)oc2cc(OCCCOc3ccc4c(C)cc(=O)oc4c3)ccc12
inactive: SNB-75 38.6 µM | UACC-257 > 100 µM | SF-295 > 100 µM | A498 > 100 µM | CCRF-CEM > 100 µM | TK-10 > 100 µM | SF-268 > 100 µM | RXF 393 > 100 µM | UO-31 > 100 µM | SK-MEL-5 > 100 µM | SW-620 > 100 µM | SF-539 > 100 µM | SK-MEL-2 > 100 µM

O=C(CC1(O)C(=O)Nc2ccccc21)c1ccc(F)cc1 (centres undefined)
inactive: OVCAR-5 > 100 µM | SNB-75 > 100 µM | UACC-257 > 100 µM | SF-295 > 100 µM | A498 > 100 µM | TK-10 > 100 µM | SF-268 > 100 µM | RXF 393 > 100 µM | UO-31 > 100 µM | HOP-92 > 100 µM | SK-MEL-5 > 100 µM | SW-620 > 100 µM | SF-539 > 100 µM | SK-MEL-2 > 100 µM

O=c1[nH]c(-c2ccccc2)nc2cc(Cl)ccc12
inactive: OVCAR-5 > 100 µM | SNB-75 > 100 µM | UACC-257 > 100 µM | SF-295 > 100 µM | A498 > 100 µM | CCRF-CEM > 100 µM | TK-10 > 100 µM | RXF 393 > 100 µM | UO-31 > 100 µM | KM12 > 100 µM | SK-MEL-5 > 100 µM | SW-620 > 100 µM | SF-539 > 100 µM | SK-MEL-2 > 100 µM

CC1=C(C(=O)Nc2ccc([N+](=O)[O-])cc2)C(c2ccc3c(c2)OCO3)C(C(=O)Nc2ccc([N+](=O)[O-])cc2)=C(C)N1
inactive: OVCAR-5 59.7 µM | SNB-75 6.18 µM | UACC-257 5.6 µM | SF-295 8.34 µM | A498 14.2 µM | SF-268 > 100 µM | RXF 393 25.3 µM | UO-31 6.4 µM | HOP-92 4.08 µM | KM12 3.8 µM | SW-620 51.9 µM | SF-539 27.7 µM | SK-MEL-2 6.68 µM

CCOC(=O)Cc1nc2ccccc2s1
inactive: OVCAR-5 24.9 µM | SNB-75 29.3 µM | UACC-257 17.3 µM | SF-295 17.7 µM | A498 18.5 µM | CCRF-CEM 18.8 µM | TK-10 27.5 µM | SF-268 18.6 µM | RXF 393 20.9 µM | UO-31 15.8 µM | KM12 > 10 µM | SK-MEL-5 20.6 µM | SW-620 19.2 µM | SF-539 18.4 µM | SK-MEL-2 18.2 µM

COc1ccc(O)c(C#N)c1C#N
inactive: OVCAR-5 > 100 µM | SNB-75 > 100 µM | UACC-257 > 100 µM | SF-295 > 100 µM | A498 > 100 µM | CCRF-CEM > 100 µM | TK-10 > 100 µM | SF-268 > 100 µM | RXF 393 > 100 µM | UO-31 > 100 µM | KM12 > 100 µM | SK-MEL-5 > 100 µM | SW-620 > 100 µM | SF-539 > 100 µM | SK-MEL-2 > 100 µM

COC(=O)C1CC/C(=N/c2ccc(C)cc2C)N1 (centres undefined)
inactive: OVCAR-5 > 100 µM | SNB-75 99.3 µM | UACC-257 > 100 µM | SF-295 > 100 µM | A498 > 100 µM | CCRF-CEM > 100 µM | TK-10 > 100 µM | SF-268 > 100 µM | UO-31 > 100 µM | HOP-92 > 100 µM | KM12 > 100 µM | SK-MEL-5 > 100 µM | SW-620 > 100 µM | SK-MEL-2 > 100 µM

CCCCCCCCCCCCCCCC(=O)OCCOCCOCCOCCOCCOC(=O)CCCCCCCCCCCCCCC
inactive: OVCAR-5 > 100 µM | SNB-75 > 10 µM | UACC-257 > 100 µM | SF-295 > 100 µM | A498 > 100 µM | CCRF-CEM > 100 µM | TK-10 > 100 µM | SF-268 > 100 µM | RXF 393 > 100 µM | UO-31 > 100 µM | HOP-92 > 100 µM | KM12 > 100 µM | SK-MEL-5 > 100 µM | SW-620 > 100 µM | SK-MEL-2 > 100 µM
